Structures can show the parent of a compound that is named as a salt. Where two headings read alike, the source gives them in different places.
System: hepatocytes isolated from Wistar rat liver
Test: Test of inhibition of hepatic production of glucose (isolated hepatocytes, 3 h or 20 h incubation)
Type: cell-based
Details: for activity at 50 µM / activity at 100 µM: Rattus norvegicus, Hepatocyte; for activity at 50 µM: read-out: HGP % of ctrl @ 50 μM; for activity at 100 µM: read-out: HGP % of ctrl @ 100 μM
Method: The hepatocytes are isolated from Wistar rat liver having fasted for 24 h after perfusion of collagenase in the portal vein. The freshly isolated hepatocytes are sown in 6-well plates coated with collagen and containing an adhesion medium (Williams Medium). After adhesion, the medium is replaced with RPMI 1640 medium without any glucose, containing hydrocortisone (7.10^−5M) for a duration from 16 to 18 h. The next day, the glucose hepatic production test is conducted in a Krebs medium for 3 h. The basal conditions are cells incubated with only Krebs, the stimulated conditions are the cells placed in Krebs+lactate+pyruvate, the produced conditions are the cells exposed to chemical compounds in a Krebs/lactate/pyruvate medium. In the case when the compounds are dissolved in DMSO, all the conditions of the tests are met in the presence of a final concentration of 0.1% DMSO. The positive control of the test is the mercaptopicolinate known for its inhibitory action on hepatic production of glucose via the phosphoenolpyruvate carboxykinase. For short term treatments, the compounds are incubated for 3 h. For long term treatments, the compounds are incubated for 20 h at the moment when the hepatocytes are cultivated in RPMI and then added during the hepatic production test for 3 h. At the end of the 3 hours of incubation, the supernatant is recovered for measurement of glucose with a colorimetric method using glucose oxidase. The cells are lysed with a 0.1% NaOH aqueous solution in order to measure the amount of protein with the Lowry method. The results are expressed in mmols of glucose per mg of protein.

[1] = 3 h, hepatic glucose production, rat hepatocytes, 3 h incubation, compound at 50 μM
[2] = 3 h, hepatic glucose production, rat hepatocytes, 3 h incubation, compound at 100 μM
[3] = 20 h, hepatic glucose production, rat hepatocytes, 20 h incubation, compound at 50 μM
[4] = 20 h, hepatic glucose production, rat hepatocytes, 20 h incubation, compound at 100 μM

Work on `N=C(N)NC(=O)Cc1cc(C(=O)c2ccco2)sc1-c1ccc(Cl)cc1` [compound 186, N-carbamimidoyl-2-[2-(4-chlorophenyl)-5-(furan-2-carbonyl)-3-thienyl]acetamide hydrochloride] yielded an activity at 50 µM [1] of 69% and an activity at 100 µM [2] of 60%.

`O=C(O)Cc1cc(C(=O)CCc2ccccc2)sc1-c1ccc(Cl)cc1` [compound 63, 2-(2-(4-chlorophenyl)-5-(3-phenylpropanoyl)thiophen-3-yl) acetic acid] was tested, and the “inhibition of hepatic production of glucose” value (shortened to “inhibition”) (3 h incubation, with two doses) was “strongest inhibitions”, the activity at 50 µM [1] was 56% and the activity at 100 µM [2] was 28%.

With `O=C(O)Cc1cc(C(=O)c2ccccn2)sc1-c1ccc(Cl)cc1` [compound 149, 2-(2-(4-chlorophenyl)-5-picolinoylthiophen-3-yl)acetic acid] the activity at 50 µM [3] was 47% and the activity at 100 µM [4] was 13%.

In the case of `COCC(C(=O)O)c1cc(C(=O)c2ccc(OC)cc2)sc1-c1ccc(Cl)cc1` (stereo not drawn) [compound 128, 2-(2-(4-chlorophenyl)-5-(4-methoxybenzoyl)thiophen-3-yl)-3-methoxypropanoic acid], the “inhibition” value (20 h incubation, with two doses) is reported as “strongest inhibitions”, the activity at 50 µM [3] is reported as 41% and the activity at 100 µM [4] is reported as 16%.

For `CCOC(=O)CN(C)C(=O)Cc1cc(C(=O)c2ccc(OC)cc2)sc1-c1ccccc1` [compound 87, ethyl 2-(2-(5-(4-methoxybenzoyl)-2-phenylthiophen-3-yl)-N-methylacetamido)acetate], the activity at 50 µM [1] was 77% and the activity at 100 µM [2] was 73%.

`COc1cccc(CNC(=O)c2cc(CC(=O)OC(C)C)c(-c3ccc(Cl)cc3)s2)c1` [compound 116, isopropyl 2-(2-(4-chlorophenyl)-5-((3-methoxybenzyl)-carbamoyl)thiophen-3-yl)acetate] gave an activity at 50 µM [1] of 62% and an activity at 100 µM [2] of 67%.

With `COc1cccc(C(=O)c2cc(CC(=O)O)c(-c3ccc(Cl)cc3)s2)c1` [compound 59, 2-(2-(4-chlorophenyl)-5-(3-methoxybenzoyl)thiophen-3-yl) acetic acid] the activity at 50 µM [1] was 67% and the activity at 100 µM [2] was 35%.

For `COc1ccc(C(=O)c2cc(CC(=O)NCCN(C)C)c(-c3ccc(Cl)c(Cl)c3)s2)cc1` [compound 166, 2-[2-(3,4-dichlorophenyl)-5-(4-methoxybenzoyl)-3-thienyl]-N-(2-dimethylaminoethyl)acetamide], the activity at 50 µM [1] was 71% and the activity at 100 µM [2] was 65%.

`CCOC(=O)Cc1cc(C(=O)c2ccccc2OC)sc1-c1ccc(OC)cc1` [compound 23, ethyl 2-(5-(2-methoxybenzoyl)-2-(4-methoxyphenyl)thiophen-3-yl)acetate] gave an activity at 50 µM [1] of 79% and an activity at 100 µM [2] of 73%.

`COc1ccc(-c2sc(C(=O)c3ccc(F)cc3F)cc2CC(=O)O)cc1` [compound 65, 2-(5-(2,4-difluorobenzoyl)-2-(4-methoxyphenyl)thiophen-3-yl)acetic acid] showed an activity at 50 µM [1] of 93% and an activity at 100 µM [2] of 66%.

Work on `O=C(c1ccco1)c1cc(Cc2noc(=O)[nH]2)c(-c2ccc(Cl)cc2)s1` [compound 153, 3-((2-(4-chlorophenyl)-5-(furan-2-carbonyl)thiophen-3-yl)-methyl)-1,2,4-oxadiazol-5(2H)-one] yielded an activity at 50 µM [1] of 95% and an activity at 100 µM [2] of 38%.

`COc1ccc(NC(=O)c2cc(CC(=O)O)c(-c3ccc(Cl)cc3)s2)cc1` [compound 121, 2-(2-(4-chlorophenyl)-5-((4-methoxyphenyl)carbamoyl)thiophen-3-yl)acetic acid] showed an activity at 50 µM [1] of 80% and an activity at 100 µM [2] of 66%.

`CCOC(=O)Cc1cc(C(=O)c2cccc(OC)c2)sc1-c1ccc(Cl)cc1` [compound 12, ethyl 2-(2-(4-chlorophenyl)-5-(3-methoxybenzoyl)thiophen-3-yl)acetate] gave an activity at 50 µM [1] of 70% and an activity at 100 µM [2] of 53%.

Work on `COC(=O)Cc1cc(C(=O)c2ccccc2)sc1-c1ccccc1` [compound 7, methyl 2-(5-benzoyl-2-phenyl-thiophen-3-yl)acetate] yielded an activity at 50 µM [1] of 84% and an activity at 100 µM [2] of 70%.

In the case of `COc1ccc(C(=O)c2cc(CC(=O)O)c(-c3ccc(OC)cc3)s2)cc1` [compound 45, 2-(5-(4-methoxybenzoyl)-2-(4-methoxyphenyl)thiophen-3-yl)acetic acid], the activity at 50 µM [1] is reported as 82% and the activity at 100 µM [2] is reported as 73%.

`COc1ccc(C(=O)c2cc(CC(=O)NC(=N)N)c(-c3ccc(Cl)cc3)s2)cc1.Cl` [compound 185, N-carbamimidoyl-2-(2-(4-chlorophenyl)-5-(4-methoxybenzoyl)thiophen-3-yl) acetamide hydrochloride] was tested, and the “inhibition” value (3 h incubation, with two doses) was “strongest inhibitions”, the activity at 50 µM [1] was 54% and the activity at 100 µM [2] was 28%.

`COc1ccc(C(=NO)c2cc(CC(=O)O)c(-c3ccc(Cl)cc3)s2)cc1` [compound 109, 2-(2-(4-chlorophenyl)-5-((hydroxyimino)(4-methoxyphenyl)methyl)thiophen-3-yl)acetic acid] gave an activity at 50 µM [1] of 69% and an activity at 100 µM [2] of 27%.

`O=C(O)Cc1cc(C(=O)c2ccco2)sc1-c1ccc(Cl)c(Cl)c1` [compound 159, 2-[2-(3,4-dichlorophenyl)-5-(furan-2-carbonyl)-3-thienyl]acetic acid] was tested, and the “inhibition” value (3 h incubation, at the dose of 50 μM) was “strongest inhibitions” and the activity at 50 µM [1] was 40%.

`CCONC(=O)Cc1cc(C(=O)c2ccco2)sc1-c1ccc(Cl)cc1` [compound 98, 2-(2-(4-chlorophenyl)-5-(furan-2-carbonyl)thiophen-3-yl)-N-ethoxyacetamide] gave an activity at 50 µM [1] of 88% and an activity at 100 µM [2] of 74%.

With `O=C([O-])Cc1cc(C(=O)c2ccco2)sc1-c1ccc(Cl)cc1.[Na+]` [compound 82, sodium 2-(2-(4-chlorophenyl)-5-(furan-2-carbonyl)thiophen-3-yl)acetate] the “HGP % of ctrl @ 50 μM” value (hepatic glucose production, rat hepatocytes, 3 h incubation, compound at 50 μM) was 67 % of ctrl and the “HGP % of ctrl @ 100 μM” value (hepatic glucose production, rat hepatocytes, 3 h incubation, compound at 100 μM) was 26 % of ctrl.

In the case of `O=C(O)Cc1cc(C(=O)c2cccc(Cl)c2)sc1-c1ccc(Cl)cc1` [compound 58, 2-(5-(3-chlorobenzoyl)-2-(4-chlorophenyl)thiophen-3-yl)acetic acid], the “inhibition” value (3 h incubation, with two doses) is reported as “strongest inhibitions”, the activity at 50 µM [1] is reported as 51% and the activity at 100 µM [2] is reported as 25%.

With `CCOC(=O)Cc1cc(C(=O)NNC(=O)c2ccncc2)sc1-c1ccc(Cl)cc1` [compound 179, ethyl 2-[2-(4-chlorophenyl)-5-[(pyridine-4-carbonyl-amino)-carbamoyl]-3-thienyl]acetate] the activity at 50 µM [1] was 91% and the activity at 100 µM [2] was 69%.

Reference: patent publication US9777015B2, “Useful thiophene derivatives in the treatment of diabetes” (METABRAIN RESEARCH, priority 2012, dated 2017)
